In patent US6436705B1, “Shape stabilized erythrocytes” (The United States of America as represented by the …, priority 1997, dated 2002):

Columns and labels:
Format in all cases: cell-based, human
[1] = system: erythrocytes; experiment: Assay of capacity for shape change (LPC-induced echinocytosis, microscopy); settings: 5 mM DTBP for 1 h, then 10 μg/ml LPC
Description: Microscopy. Cross-linked and reversed cells were prepared as described in the section on erythrocyte preparation, etc., with the addition of 0.5% bovine serum albumin to the solution prior microscopic examination. Cells were examined using an Nikon Optiphot, equipped with PlanApo 20×objective.
Assay of capacity for shape change. To induce echinocytosis ([…]), erythrocytes were incubated with 10μg/ml LPC for 2 min at room temperature. Erythrocytes were pretreated with 5 mM DTBP for 1 h and then subjected to 10 μg/ml LPC treatment. Microscopic examination of cell morphology was performed. Erythrocytes were pretreated with 5 mM DTBP for 1 h, reversed with 10 mM DTT for 20 min and then subjected to 10 μg/ml LPC treatment. Microscopic examination followed. Erythrocyte response to LPC of normal, cross-linked and reversed cells was compared.

[2] = system: Red blood cells; experiment: Metabolic viability: ATP content of red blood cells over time
Description: The metabolic viability of cross-linked cells was assayed by monitoring the production and depletion of ATP over time. DTBP cells were cross-linked in 5 mM DTBP 150 mM glucose for 5 hours at 4° C. The cells were then washed 3 times and incubated in 150 mM glucose for an additional 19 hrs. After washing to remove the glucose the cells were incubated at 4° C. in PBS for 72 hrs before being returned to 150 mM glucose for the final 24 hr incubation. At each time point cells were removed, washed, and spectrophotometrically assayed for ATP as described in the text. The glucose controls were cells treated in the same manor but without crosslinking, and the control cells are cells without exposure to glucose.

[3] = system: Red blood cells; experiment: Deformability measurements with an ektacytometer (Shear-scan, Osmo-scan); settings: 5 mM DTBP for 1 h
Description: Red blood cells were cross-linked with 5 mM DTBP for 1 h. Cross-linking was reversed with 10 mM DTT for 20 min. Deformability measurements were made with fresh untreated, cross-linked, and reversed cells as well as with untreated packed cells stored in CPDA-1 for 6 weeks at 4° C. The effects of cross-linking and reversal on red blood cell deformability were measured with an ektacytometer (Technicon).
The ektacytometer is a laser diffraction viscometer described in detail by Bessiss and Mohandas. Intact red blood cells and ghosts suspended in solution produce a diffuse circular laser diffraction pattern. The instrument takes advantage of the fact that when a shear force is applied to the solution crossing the beam the cells align in the direction of shear and begin deforming into uniformly oriented ellipsoids. The laser diffraction pattern then takes on an ellipsoidal shape oriented 90° from the major elliptical cell axis, with the ratio of the long axis to the short axis length determined by the degree of cell deformation. A signal proportional to mean cellular ellipticity is derived from photometric measurement of this laser diffraction pattern in the two axis directions and is designated the deformability index (DI).
Two types of deformability profiles were generated in the present experiments. […] Shear-scans were run with 40 μl of concentrated cell suspension (80% hematocrit) mixed with 3.0 ml of 3.1% (w/v) polyvinylpyrrolidone (P, av-MW 360 kD) solution containing 138 mM NaCl, 6.34 mM Na2HPO4, 2 mM NaH2PO4, and 0.04% (w/v) NaN3 with pH=7.35±0.05, osmolality=290 mOsmol/kg (by freezing point depression), and viscosity=20 cp (assumed). Osmo-scans were run by continuous addition of this suspension medium containing 100 μl of cells to a PVP solution with a graded salt concentration. Salt gradients were made by addition of high salt PVP solution with 386 mM NaCI (osmolality=750 mOsmol/kg) to a low salt PVP solution with 2.5 mM NaCl (osmolality=40 mOsmol/kg). Conductance measurements of the cell suspension in the viscometer provided an indirect measure of osmolality, which was calculated from a standard calibration curve.
Data was recorded onto a computer, and curves were fitted and plotted using custom routines in Matlab (The Math Works Inc, Natick, Mass.). Shear scans were fitted with a polynomial of degree 6 from which the maximum DI (DImax) was calculated. Osmo-scans were fitted with a running average, and DImax was calculated within the range of 180-240 mOsmol/Kg, along with the osmolality corresponding to 1/2DImax at hypertonic salt concentrations (0′), where DI decreases with increasing intracellular viscosity secondary to cell shrinkage and increased hemoglobin concentration (see Mohandas et al., J. Clin. Invest. 66563-73(1980)). The osmolality corresponding to the minimum DI (Omin) at hypotonic salt concentrations, where DI falls due to cell swelling, was also calculated. The height of the small DI peak thought to be associated with the sudden availability of excess membrane for deformation as intracellular ions and water are lost in the lower range of hypotonic salt (63-125 mOsmol/Kg) concentrations was also recorded (see Clark et al., Blood 61 899-910 (1983)).

COC(=N)CCSSCCC(=N)OC [DTBP, Dimethyl-3,3′-dithiobispropionimidate]
effect on LPC-induced echinocytosis [1]: completely blocked | ATP Content ([2]; 5 mM DTBP 5 h, 72 hrs in PBS): 51.7 µmol/dL | ATP ([2]; 5 mM DTBP 5 h, after 72 hours in PBS at 4° C.): 51.7 µmol/dL | ATP Content ([2]; 5 mM DTBP 5 h, final 24 hrs in glucose after PBS): 51.5 µmol/dL | ATP Content ([2]; 5 mM DTBP 5 h at 4° C., 24 hrs in glucose (first)): 76.1 µmol/dL | DImax ([3]; Osmo-scan): 0.30 | Omin (osmolality corresponding to the minimum DI) ([3]; Osmo-scan): 125 mOsmol/Kg | O′ (osmolality corresponding to 1/2DImax at hypertonic salt) ([3]; Osmo-scan): 264 mOsmol/Kg | reduction of DImax ([3]; Osmo-scan, FIG. 7): 36% | reduction of red cell deformability as a function of shear stress ([3]; Shear-scan, FIG. 6): over half
